Assay [1] deals with histamine stimulated gastric acid secretion from rat stomach. The assay can be described thus: Gastric acid secretion measured in vivo (histamine stimulated). Also on record: species or system rat (male Wistar). The note with it: for Acid output, mean: histamine 2 mg/kg bolus; for Acid output compared to the histamine control (in words): treated orally, then challenged with histamine, FIGS. 1-3. Here is the method:
(§1) Male Wistar rats (weighing 200-225 g) were fasted for 24 hours in wire mesh cages to avoid coprophagy. The rats were obtained from the animal facilities of the Faculty of Medicine and Health Sciences of the United Arab Emirates (UAE) University. Materials
Groups of six rats were used for the experiment. Rats were initially anesthetized with urethane (1.5 g/kg) intraperitoneally. Following general anesthesia, a laparotomy was immediately performed followed by the insertion of a polyethylene tube at the pyloric end of the stomach. This tube was used to collect exudates from the stomach. An orogastric tube was inserted in the stomach via the esophagus. This tube was used to perfuse the stomach with saline (pH 7) at a constant rate of 7 mL/min at 37° C. Following perfusion, effluent samples were collected and titrated against 0.01 M NaOH every 15 minutes for acid secretion. After basal acid output for 1 hour, either saline, quercetin (50 mg/kg,), or diallyl sulfide (50 mg/kg), or allyl disulfide (10 mg/kg) at neutral pH was given orally and 30 minutes later, histamine (2 mg/kg) was administered as a bolus injection. Acid output was monitored continuously for 2 hours thereafter. The acid output was calculated and expressed as μmol (15 min^−1).

The test system of assay [2] is gastric ulcer formation in rat stomachs. The assay can be described thus: Antiulcer activity, acidified ethanol-induced gastric ulcer. Format: in vivo, rat (male Wistar). Also on record: key to Ulcer Index, Mean: total length of hemorrhagic lesions (mm) = ulcer index. The note with it: for Ulcer index compared to the control (in words): acidified ethanol model, rats; for Ulcer Index, Mean: 30 min before acidified ethanol, control 95.00. Here is the method: as §1
Rats were divided into groups of six to seven animals for each experiment. Each group received either neutral pH physiologic saline (1 mL) or water extract of either quercetin, diallyl sulfide or allyl disulfide (1 mg/kg, 10 mg/kg, 50 mg/kg or 100 mg/kg; six rats for each dose) by gastric gavage. Two additional comparison groups received either the proton pump inhibitor Lansoprazole (10 mg/kg) or the H2-receptor antagonist Ranitidine (20 mg/kg). After 30 minutes of the treatment, 1 mL of acidified ethanol (60% ethanol with 150 mM HCl), an ulcerogenic agent, was administered orally to the animals. The animals were sacrificed 1 hour later by increasing the dose of the anaesthesia. The abdomen was incised, and the stomachs removed, cut open along the greater curvature, and rinsed with saline to remove any adherent particles and mucus. The open stomach was spread on a sheet of cork so as to have a clear view of gastric lesions in the gastric mucosa. The total lengths of hemorrhagic lesions, which were approximately 1 mm in length and formed in the glandular portion of the gastric mucosa, were taken as ulcer index. An observer who was unaware of the drug treatments confirmed the ulcer index. The percentage reduction of the ulcer index in the drug-treated groups was calculated from the saline treated groups. The use of 60% ethanol in 150 mM HCl to produce an ulcerogenic effect was based on earlier observation that ethanol 50% and over provided a reproducible model of gastric damage.

Setting [3] is: dose 10 mg/kg by gastric gavage.
The mark [4] stands for this setting: dose 50 mg/kg by gastric gavage.
Setting [5] is: dose 100 mg/kg by gastric gavage.

Each structure is given as a SMILES string.

The text below walks through data of patent publication US20150182492A1, “Ulcer Treatment” (United Arab Emirates University, priority 2013, published 2015).

With `C=CCSSCC=C` [Allyl disulfide], the “Acid output, mean” value in assay [1] (time 0 min, 10 mg/kg oral) is 2.154 μmol (15 min^−1); in assay [1] (time 30 min, 10 mg/kg oral), 3.514 μmol (15 min^−1); in assay [1] (time 45 min, 10 mg/kg oral) it was 2.458 μmol (15 min^−1); in assay [1] (time 60 min, 10 mg/kg oral) it was 2.085 μmol (15 min^−1); in assay [1] (time 75 min, 10 mg/kg oral) it was 2.701 μmol (15 min^−1); in assay [1] (time 90 min, 10 mg/kg oral), 2.77 μmol (15 min^−1). Besides, the “Acid output, mean” value is 2.648 μmol (15 min^−1) in assay [1] (time 105 min, 10 mg/kg oral); 1.431 μmol (15 min^−1) in assay [1] (time 120 min, 10 mg/kg oral); 1.286 μmol (15 min^−1) in assay [1] (time 135 min, 10 mg/kg oral); 1.34 μmol (15 min^−1) in assay [1] (time 150 min, 10 mg/kg oral). For the same compound, in assay [1], the “Acid output compared to the histamine control (in words)” value is “reduced acid output compared to the histamine control”. Also, the “Ulcer index compared to the control (in words)” value (shortened to “Ulcer index … (in words)”) in assay [2] is “significantly reduced ulcer index compared to the control”. In addition, the “Ulcer Index, Mean” value is recorded as 11.67 in assay [2] (dose 1 mg/kg by gastric gavage), 0.00 in assay [2] (setting [3]), 8.33 in assay [2] (setting [4]) and 11.00 in assay [2] (setting [5]).

Turning to `C=CCSCC=C` [Allyl sulfide, Diallyl sulfide], the “Acid output, mean” value was 1.926 μmol (15 min^−1) in assay [1] (time 0 min, 50 mg/kg oral); 3.328 μmol (15 min^−1) in assay [1] (time 30 min, 50 mg/kg oral); 2.023 μmol (15 min^−1) in assay [1] (time 45 min, 50 mg/kg oral); 1.742 μmol (15 min^−1) in assay [1] (time 60 min, 50 mg/kg oral); 1.901 μmol (15 min^−1) in assay [1] (time 75 min, 50 mg/kg oral); 1.627 μmol (15 min^−1) in assay [1] (time 90 min, 50 mg/kg oral). Besides, the “Acid output, mean” value in assay [1] (time 105 min, 50 mg/kg oral) is listed as 1.761 μmol (15 min^−1); in assay [1] (time 120 min, 50 mg/kg oral), 1.883 μmol (15 min^−1); in assay [1] (time 135 min, 50 mg/kg oral) it was 2.301 μmol (15 min^−1); in assay [1] (time 150 min, 50 mg/kg oral), 1.525 μmol (15 min^−1). Moreover, the “Acid output compared to the histamine control (in words)” value in assay [1] was “reduced acid output compared to the histamine control”. Further, the “Ulcer index … (in words)” value in assay [2] was “significantly reduced ulcer index compared to the control”. Besides, the “Ulcer Index, Mean” value in assay [2] (dose 1 mg/kg by gastric gavage) was determined as 114.83; in assay [2] (setting [3]) it was 72.33; in assay [2] (setting [4]), 5.50; in assay [2] (setting [5]), 13.00.

Regarding `Cc1c(OCC(F)(F)F)ccnc1C[S+]([O-])c1nc2ccccc2[nH]1` (centres unmarked) [Lansoprazole, reference compound], in assay [2] (setting [3]), the “Ulcer Index, Mean” value worked out at 13.00.

Turning to `O=c1c(O)c(-c2ccc(O)c(O)c2)oc2cc(O)cc(O)c12` [Quercetin], the “Acid output, mean” value in assay [1] (time 0 min, 50 mg/kg oral) is recorded as 1.633 μmol (15 min^−1); in assay [1] (time 30 min, 50 mg/kg oral), 3.323 μmol (15 min^−1); in assay [1] (time 45 min, 50 mg/kg oral) it was 1.299 μmol (15 min^−1); in assay [1] (time 60 min, 50 mg/kg oral), 5.507 μmol (15 min^−1); in assay [1] (time 75 min, 50 mg/kg oral), 2.579 μmol (15 min^−1); in assay [1] (time 90 min, 50 mg/kg oral) it was 1.84 μmol (15 min^−1). Besides, the “Acid output, mean” value in assay [1] (time 105 min, 50 mg/kg oral) is 1.868 μmol (15 min^−1); in assay [1] (time 120 min, 50 mg/kg oral), 2.213 μmol (15 min^−1); in assay [1] (time 135 min, 50 mg/kg oral) it was 1.927 μmol (15 min^−1); in assay [1] (time 150 min, 50 mg/kg oral) it was 1.497 μmol (15 min^−1). The “Acid output compared to the histamine control (in words)” value in assay [1] is on record as “reduced acid output compared to the histamine control”. Besides, the “Ulcer index … (in words)” value in assay [2] is reported as “significantly reduced ulcer index compared to the control”. Besides, the “Ulcer Index, Mean” value in assay [2] (dose 1 mg/kg by gastric gavage) is listed as 34.00; in assay [2] (setting [3]), 34.00; in assay [2] (setting [4]), 21.83; in assay [2] (setting [5]), 31.17.

Turning to `CNC(=C[N+](=O)[O-])NCCSCc1ccc(CN(C)C)o1` [Ranitidine, reference compound], the “Ulcer Index, Mean” value in assay [2] (dose 20 mg/kg) came to 28.50.
